Measurements as given in patent US20250214942A1, “INHIBITORS OF RECEPTOR INTERACTING PROTEIN KINASE I FOR THE TREATMENT OF DISEASE” (Board of Regents, The University of Texas System, priority 2019, published 2025).
pIC50: −log10 of the molar value. Where two headings read alike, the source gives them in different places.

Tests used:
[1] = target: RIPK1 (Homo sapiens (Human), UniProt Q13546); experiment: ADP-Glo kinase assay (RIPK1 activity, conversion of ATP to ADP); format: biochemical; conditions: for pIC50: 5 nM RIPK1, 50 μM ATP, 6 h reaction, read-out: RIPK1 Enzyme Avg IC50
Method in brief: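 RIPK1 (5 nM final) was preincubated 10 min at rt with 1:3-diluted compounds in HEPES pH 7.5/MgCl2/DTT/BSA/CHAPS buffer. ATP (50 μM final) was then added for 6 h, and ADP formed was read by ADP-Glo luminescence. IC50 values came from four-parameter logistic fitting.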

[2] = tested on: human monocytic cell line U937; experiment: Human U937 cellular necroptosis assay (TNFalpha + z-VAD-FMK, Cell Titer-Glo viability); format: cell-based; conditions: U937 cells, 25 ng/mL human TNFalpha + 25 μM z-VAD-FMK, read-out: hU937 Avg IC50
Method in brief: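 Readout is CellTiter-Glo 2.0 luminescence after 22 h at 37° C with compound, in cells triggered by human TNFalpha (25 ng/mL) and z-VAD-FMK (25 μM) in phenol red-free RPMI/10% FBS. Values are run-averaged IC50s from a four-parameter logistic curve.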

Sequence of RIPK1 (Q13546 1-327): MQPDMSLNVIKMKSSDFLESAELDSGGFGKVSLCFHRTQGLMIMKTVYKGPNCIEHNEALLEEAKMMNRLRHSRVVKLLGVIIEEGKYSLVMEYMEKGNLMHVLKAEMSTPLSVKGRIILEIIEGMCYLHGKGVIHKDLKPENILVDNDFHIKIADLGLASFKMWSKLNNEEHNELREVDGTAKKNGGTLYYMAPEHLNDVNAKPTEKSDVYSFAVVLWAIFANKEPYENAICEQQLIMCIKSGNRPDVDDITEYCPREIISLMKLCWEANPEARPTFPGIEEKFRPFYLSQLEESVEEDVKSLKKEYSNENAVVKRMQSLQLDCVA

SMILES	pIC50 [1]	observed potency relative to the other enantiomer ([1]; enantiomers separated by SFC, assay not named)	pIC50 ([2]; Homo sapiens, U-937, 22 h)	pIC50 ([2]; 22 h)
Cc1nn(CC23CC(C(=O)N4N=CCC4c4cc(F)cc(F)c4)(C2)C3)c2ccccc12 (stereo not shown) [Example 153, (5-(3,5-difluorophenyl)-4,5-dihydro-1H-pyrazol-1-yl)(3-((3-methyl-1H-indazol-1-yl)-methyl)bicyclo[1.1.1]pentan-1-yl)methanone]	6.69		6.26	
O=C(N1N=CCC1c1cc(F)cc(F)c1)C12CC(Cn3cc4cc(F)ccc4n3)(C1)C2 (stereo not shown) [Example 3, (5-(3,5-Difluorophenyl)-4,5-dihydro-1H-pyrazol-1-yl)(3-((5-fluoro-2H-indazol-2-yl)methyl)bicyclo[1.1.1]pentan-1-yl)methanone]	7.29		6.95	
CC1=NN(C(=O)C23CC(Cn4cc(C#N)cn4)(C2)C3)C(c2cc(F)cc(F)c2)C1 (stereo not shown) [Example 47, 1-((3-(5-(3,5-difluorophenyl)-3-methyl-4,5-dihydro-1H-pyrazole-1-carbonyl)-bicyclo[1.1.1]pentan-1-yl)methyl)-1H-pyrazole-4-carbonitrile]	7.03		5.95	
COc1cnn(CC23CC(C(=O)N4N=CCC4c4cc(F)cc(F)c4)(C2)C3)c1 (stereo not shown) [Example 160, (5-(3,5-difluorophenyl)-4,5-dihydro-1H-pyrazol-1-yl)(3-((4-methoxy-1H-pyrazol-1-yl)methyl)bicyclo[1.1.1]-pentan-1-yl)methanone]	7.09		6.39	
Cn1cc(-c2cc(OCC34CC(C(=O)N5CC(F)CC5c5cccc(F)c5)(C3)C4)ncn2)cn1 (single isomer, unassigned) [Example 30, (4-Fluoro-2-(3-fluorophenyl)pyrrolidin-1-yl)(3-(((6-(1-methyl-1H-pyrazol-4-yl)pyrimidin-4-yl)oxy)methyl)bicyclo[1.1.1]pentan-1-yl)methanone]	6.91			6.15
O=C(N1N=CCC1c1cc(F)cc(F)c1)C12CC(Cn3nc4ccccc4c3Cl)(C1)C2 (stereo not shown) [Example 140, (3-((3-chloro-2H-indazol-2-yl)methyl)bicyclo[1.1.1]-pentan-1-yl)(5-(3,5-difluorophenyl)-4,5-dihydro-1H-pyrazol-1-yl)methanone]	7.31		7.28	
O=C(N1N=CCC1c1cc(F)cc(F)c1)C12CC(C(O)c3cccc(Cl)c3)(C1)C2 (stereo not shown) [Example 230, (3((3-chlorophenyl)-(hydroxy)methyl)bicyclo-[1.1.1]pentan-1-yl)(5-(3,5-difluorophenyl)-4,5-dihydro-1H-pyrazol-1-yl)methanone]	7.03		6.39	
Cc1ccc(C2CC=NN2C(=O)C23CC(Cn4cc(C#N)cn4)(C2)C3)nc1 (stereo not shown) [Example 171, 1-((3-(5-(5-methylpyridin-2-yl)-4,5-dihydro-1H-pyrazole-1-carbonyl)bicyclo[1.1.1]-pentan-1-yl)methyl)-1H-pyrazole-4-carbonitiile]	6.17		5.43	
N#Cc1ccc2c(cnn2CC23CC(C(=O)N4CCC4c4cccs4)(C2)C3)c1 (stereo not shown) [Example 255, 1-((3-(2-(thiophen-2-yl)-azetidine-1-carbonyl)bicyclo-[1.1.1]pentan-1-yl)methyl)-1H-indazole-5-carbonitrile]	7.31		6.26	
O=C(N1CC(F)CC1c1cccc(F)c1)C12CC(Cn3cc4cc(F)ccc4n3)(C1)C2 (stereo not shown) [Example 106, (4-fluoro-2-(3-fluorophenyl)-pyrrolidin-1-yl)(3-((5-fluoro-2H-indazol-2-yl)methyl)-bicyclo[1.1.1]pentan-1-yl)methanone]	6.43		5.83	
N#Cc1cnc(OCC23CC(C(=O)N4N=CC[C@@H]4c4cc(F)cc(F)c4)(C2)C3)cn1 [Example 200, (R)-5-((3-(5-(3,5-difluorophenyl)-4,5-dihydro-1H-pyrazole-1-carbonyl)bicyclo[1.1.1]pentan-1-yl)methoxy)pyrazine-2-carbonitrile]		less potent isomer	5.07	
Cn1c(=O)n(CC23CC(C(=O)N4N=CCC4c4cc(F)cc(F)c4)(C2)C3)c2ccccc21 (stereo not shown) [Example 110, 1-((3-(5-(3,5-difluorophenyl)-4,5-dihydro-1H-pyrazole-1-carbonyl)bicyclo[1.1.1]-pentan-1-yl)methyl)-3-methyl-1,3-dihydro-2H-benzo[d]imidazol-2-one]	6.87		6.13	
Cc1cnc(C2CC=NN2C(=O)C23CC(Cn4cc(C#N)cn4)(C2)C3)cn1 (stereo not shown) [Example 131, 1-((3-(5-(5-methylpyrazin-2-yl)-4,5-dihydro-1H-pyrazole-1-carbonyl)bicyclo[1.1.1]-pentan-1-yl)methyl)-1H-pyrazole-4-carbonitrile]	6.43		5.72	
O=C(N1N=CCC1c1cc(F)cc(F)c1)C12CC(Cn3cc(C4CC4)nn3)(C1)C2 (stereo not shown) [Example 159, (3-((4-cyclopropyl-1H-1,2,3-triazol-1-yl)methyl)bicyclo-[1.1.1]pentan-1-yl)(5-(3,5-difluorophenyl)-4,5-dihydro-1H-pyrazol-1-yl)methanone]	5.95		5.44	
N#Cc1cccc(C2CC=NN2C(=O)C23CC(Cn4cc(C#N)cn4)(C2)C3)c1 (stereo not shown) [Example 137, 1-((3-(5-(3-cyanophenyl)-4,5-dihydro-1H-pyrazole-1-carbonyl)bicyclo[1.1.1]-pentan-1-yl)methyl)-1H-pyrazole-4-carbonitrile]	6.42		5.57	
O=C(N1N=CCC1c1cc(F)cc(F)c1)C12CC(Cn3cnc4ncccc43)(C1)C2 (stereo not shown) [Example 193, (3-((1H-imidazo[4,5-b]-pyridin-1-yl)methyl)-bicyclo[1.1.1]pentan-1-yl)(5-(3,5-difluorophenyl)-4,5-dihydro-1H-pyrazol-1-yl)methanone and (3-((3H-imidazol[4,5-b]pyridin-3-yl)methyl)-bicyclo[1.1.1]pentan-1-yl)(5-(3,5-difluorophenyl)-4,5-dihydro-1H-pyrazol-1-yl)methanone]	6.53			5.86

More lines, in order of rising pIC50 [1], values ahead:

pIC50 [1]	observed potency relative to the other enantiomer ([1]; enantiomers separated by SFC, assay not named)	SMILES	pIC50 ([2]; Homo sapiens, U-937, 22 h)	pIC50 ([2]; 22 h)
7.46		COc1cccc(C(F)C23CC(C(=O)N4N=CCC4c4cc(F)cc(F)c4)(C2)C3)c1 (stereo not shown) [Example 226, (5-(3,5-difluorophenyl)-4,5-dihydro-1H-pyrazol-1-yl)(3-(fluoro(3-methoxyphenyl)-methyl)bicyclo[1.1.1]pentan-1-yl)methanone]	7.29	
7.49		O=C(N1CC(F)CC1c1cccc(F)c1)C12CC(COc3cc(Br)ncn3)(C1)C2 (stereo not shown) [Example 28, (3-(((6-Bromopyrimidin-4-yl)oxy)methyl)bicyclo[1.1.1]pentan-1-yl)(4-fluoro-2-(3-fluorophenyl)pyrrolidin-1-yl)methanone]	6.71	
7.51		O=C(N1CC(F)CC1c1cccc(F)c1)C12CC(C(F)c3ccccc3)(C1)C2 (stereo not shown) [Example 41, (3-(Fluoro(phenyl)methyl)bicyclo[1.1.1]pentan-1-yl)-(4-fluoro-2-(3-fluorophenyl)pyrrolidin-1-yl)methanone]	6.57	
7.64		N#Cc1ccc2c(cnn2CC23CC(C(=O)N4CCC4c4ccccc4F)(C2)C3)c1 (stereo not shown) [Example 248, 1-((3-(2-(2-fluorophenyl)-azetidine-1-carbonyl)bicyclo-[1.1.1]pentan-1-yl)methyl)-1H-indazole-5-carbonitrile]	6.73	
7.66		O=C(N1N=CCC1c1cc(F)cc(F)c1)C12CC(Cn3ncc4cccc(Cl)c43)(C1)C2 (stereo not shown) [Example 69, (3-((7-chloro-1H-indazol-1-yl)methyl)bicyclo[1.1.1]-pentan-1-yl)(5-(3,5-difluoro-phenyl)-4,5-dihydro-1H-pyrazol-1-yl)methanone]	7.36	
7.70		O=C(N1N=CCC1c1cc(F)cc(F)c1)C12CC(Cn3ccc4cc(F)ccc43)(C1)C2 (stereo not shown) [Example 133, (5-(3,5-difluorophenyl)-4,5-dihydro-1H-pyrazol-1-yl)(3-((5-fluoro-1H-indol-1-yl)-methyl)bicyclo[1.1.1]pentan-1-yl)methanone]	8.00	
7.72		O=C(N1N=CCC1c1cc(F)cc(F)c1)C12CC(Cn3ncc4cc(F)ccc43)(C1)C2 (stereo not shown) [Example 4, (5-(3,5-Difluorophenyl)-4,5-dihydro-1H-pyrazol-1-yl)(3-((5-fluoro-1H-indazol-1-yl)methyl)bicyclo[1.1.1]pentan-1-yl)methanone]	8.05	
7.80		O=C(N1CC(F)CC1c1cccc(F)c1)C12CC(Cn3ncc4c(F)cccc43)(C1)C2 (stereo not shown) [Example 83, (3-((4-fluoro-1H-indazol-1-yl)methyl)bicyclo[1.1.1]-pentan-1-yl)(4-fluoro-2-(3-fluorophenyl)pyrrolidin-1-yl)methanone]	7.17	
7.96		O=C(N1N=CCC1c1ccccc1)C12CC(Cn3ncc4c(F)cccc43)(C1)C2 (stereo not shown) [Example 81, (3-((4-fluoro-1H-indazol-1-yl)methyl)bicyclo[1.1.1]-pentan-1-yl)(5-phenyl-4,5-dihydro-1H-pyrazol-1-yl)-methanone]	7.92	
7.96		O=C(N1N=CCC1c1cc(F)cc(F)c1)C12CC(COc3ccc(Br)cc3Cl)(C1)C2 (stereo not shown) [Example 330, (3-((4-bromo-2-chloro-phenoxy)methyl)bicyclo-[1.1.1]pentan-1-yl)(5-(3,5-difluorophenyl)-4,5-dihydro-1H-pyrazol-1-yl)methanone]	7.68	
